Measured values taken from patent publication US12448369B2 (Edgewise Therapeutics, Inc., priority 2023, dated 2025).

System: Porcine atria myofibrils (atrial myosin ATPase)
Assay: Myofibril ATPase assay, porcine atria myofibrils
Assay type: biochemical
Conditions: Y75 value (no ‡ mark); porcine atria myofibrils
Procedure, shortened: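 Y75 (25% inhibition) or Y125 (activation) values come from 4-parameter logistic fits of vehicle-normalized rates. Rates are linear-regression slopes of NADH absorbance at 340 nm, read kinetically over 75 min, with ADP coupled to NADH oxidation via pyruvate kinase/lactate dehydrogenase.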

In order of rising “Atrial EC25” value:
1. C[C@H](NC(=O)Cc1c(C(F)F)c2c(F)c(F)ccc2[nH]c1=O)c1ccc(F)cc1F [compound 107]  30 nM
2. Cc1cc(C#N)ncc1[C@@H](C)NC(=O)Cc1c(C)c2c(C)c(F)ccc2[nH]c1=O [compound 1044]  60 nM
3. Cc1c([C@H](C)C(=O)N[C@@H](C)c2ncc(C#N)cc2F)c(=O)[nH]c2ccc(F)c(F)c12 (single isomer, unassigned) [compound 2603]  60 nM
4. C[C@H](NC(=O)[C@H](C)c1c(C(F)(F)F)c2cc(F)ccc2[nH]c1=O)c1ccc(F)cc1F (single isomer, unassigned) [compound 58]  60 nM
5. Cc1nc(C#N)cnc1[C@H](C)NC(=O)Cc1c(C)c2c(C#N)c(F)ccc2[nH]c1=O (single isomer, unassigned) [compound 2]  90 nM
6. C[C@H](NC(=O)[C@@H](C)c1c(C(F)(F)F)c2cc(F)ccc2[nH]c1=O)c1ccc(F)cc1F (single isomer, unassigned) [compound 99]  130 nM
7. Cc1c(C(F)(F)C(=O)N[C@H](C)c2ncc(F)cc2F)c(=O)[nH]c2ccc(F)cc12 (single isomer, unassigned) [compound 4819]  280 nM
8. Cc1c(C2(C(=O)N[C@H](C)c3ncc(C#N)cc3F)CC2)c(=O)[nH]c2cccc(C#N)c12 (single isomer, unassigned) [compound 2541]  330 nM
9. C[C@@H](NC(=O)C1(c2cc3c(F)c(F)ccc3[nH]c2=O)CC1)c1ccc(F)cc1F [compound 4813]  370 nM
10. Cc1c(CC(=O)N[C@H](C)c2ccc(C#N)nn2)c(=O)[nH]c2cccc(C#N)c12 [compound 1038]  420 nM
11. CC[C@H](NC(=O)Cc1c(C)c2c(C)c(F)ccc2[nH]c1=O)c1ncc(C#N)cn1 (single isomer, unassigned) [compound 4834]  490 nM
12. Cc1cc(F)cnc1[C@H](C)NC(=O)C1(c2cc3c(F)c(F)ccc3[nH]c2=O)CC1 (single isomer, unassigned) [compound 4806]  710 nM
13. Cc1c(C2(C(=O)N[C@H](C)c3ncc(C#N)cn3)CC2)c(=O)[nH]c2cccc(C#N)c12 (single isomer, unassigned) [compound 2543]  730 nM
14. C[C@@H](NC(=O)Cc1cc2cc(F)c(F)cc2[nH]c1=O)c1cnc(C#N)cn1 [compound 1098]  7060 nM
15. C[C@@H](NC(=O)Cc1cc2c(C(F)(F)F)c(F)ccc2[nH]c1=O)c1ncc(C#N)cn1 (single isomer, unassigned) [compound 2009]  100000 nM

Target: T1, Porcine ventricle myofibrils (ventricular myosin ATPase) (Sus scrofa, UniProt P79293)
T1 construct: Myofibrils from porcine cardiac muscle was isolated from the left ventricle of Yucatan minipigs; tissue Exemplar Genetics; host or cells: left ventricle of Yucatan minipigs, myofibrils prepared in house
Assay: Myofibril ATPase assay, porcine ventricle myofibrils
Assay type: biochemical, porcine (Yucatan minipigs)
Conditions: Y75 value (no ‡ mark); porcine ventricle myofibrils
Procedure, shortened: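 Left-ventricle myofibrils from Yucatan minipigs were tested with a PK/LDH-coupled system, following NADH loss at 340 nm every 1.5-2 min for 75 min. Slopes were normalized to vehicle wells and fit to a 4-parameter logistic model; values are Y75 (25% ATPase reduction) or Y125 concentrations.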

T1 sequence (P79293 whole entry): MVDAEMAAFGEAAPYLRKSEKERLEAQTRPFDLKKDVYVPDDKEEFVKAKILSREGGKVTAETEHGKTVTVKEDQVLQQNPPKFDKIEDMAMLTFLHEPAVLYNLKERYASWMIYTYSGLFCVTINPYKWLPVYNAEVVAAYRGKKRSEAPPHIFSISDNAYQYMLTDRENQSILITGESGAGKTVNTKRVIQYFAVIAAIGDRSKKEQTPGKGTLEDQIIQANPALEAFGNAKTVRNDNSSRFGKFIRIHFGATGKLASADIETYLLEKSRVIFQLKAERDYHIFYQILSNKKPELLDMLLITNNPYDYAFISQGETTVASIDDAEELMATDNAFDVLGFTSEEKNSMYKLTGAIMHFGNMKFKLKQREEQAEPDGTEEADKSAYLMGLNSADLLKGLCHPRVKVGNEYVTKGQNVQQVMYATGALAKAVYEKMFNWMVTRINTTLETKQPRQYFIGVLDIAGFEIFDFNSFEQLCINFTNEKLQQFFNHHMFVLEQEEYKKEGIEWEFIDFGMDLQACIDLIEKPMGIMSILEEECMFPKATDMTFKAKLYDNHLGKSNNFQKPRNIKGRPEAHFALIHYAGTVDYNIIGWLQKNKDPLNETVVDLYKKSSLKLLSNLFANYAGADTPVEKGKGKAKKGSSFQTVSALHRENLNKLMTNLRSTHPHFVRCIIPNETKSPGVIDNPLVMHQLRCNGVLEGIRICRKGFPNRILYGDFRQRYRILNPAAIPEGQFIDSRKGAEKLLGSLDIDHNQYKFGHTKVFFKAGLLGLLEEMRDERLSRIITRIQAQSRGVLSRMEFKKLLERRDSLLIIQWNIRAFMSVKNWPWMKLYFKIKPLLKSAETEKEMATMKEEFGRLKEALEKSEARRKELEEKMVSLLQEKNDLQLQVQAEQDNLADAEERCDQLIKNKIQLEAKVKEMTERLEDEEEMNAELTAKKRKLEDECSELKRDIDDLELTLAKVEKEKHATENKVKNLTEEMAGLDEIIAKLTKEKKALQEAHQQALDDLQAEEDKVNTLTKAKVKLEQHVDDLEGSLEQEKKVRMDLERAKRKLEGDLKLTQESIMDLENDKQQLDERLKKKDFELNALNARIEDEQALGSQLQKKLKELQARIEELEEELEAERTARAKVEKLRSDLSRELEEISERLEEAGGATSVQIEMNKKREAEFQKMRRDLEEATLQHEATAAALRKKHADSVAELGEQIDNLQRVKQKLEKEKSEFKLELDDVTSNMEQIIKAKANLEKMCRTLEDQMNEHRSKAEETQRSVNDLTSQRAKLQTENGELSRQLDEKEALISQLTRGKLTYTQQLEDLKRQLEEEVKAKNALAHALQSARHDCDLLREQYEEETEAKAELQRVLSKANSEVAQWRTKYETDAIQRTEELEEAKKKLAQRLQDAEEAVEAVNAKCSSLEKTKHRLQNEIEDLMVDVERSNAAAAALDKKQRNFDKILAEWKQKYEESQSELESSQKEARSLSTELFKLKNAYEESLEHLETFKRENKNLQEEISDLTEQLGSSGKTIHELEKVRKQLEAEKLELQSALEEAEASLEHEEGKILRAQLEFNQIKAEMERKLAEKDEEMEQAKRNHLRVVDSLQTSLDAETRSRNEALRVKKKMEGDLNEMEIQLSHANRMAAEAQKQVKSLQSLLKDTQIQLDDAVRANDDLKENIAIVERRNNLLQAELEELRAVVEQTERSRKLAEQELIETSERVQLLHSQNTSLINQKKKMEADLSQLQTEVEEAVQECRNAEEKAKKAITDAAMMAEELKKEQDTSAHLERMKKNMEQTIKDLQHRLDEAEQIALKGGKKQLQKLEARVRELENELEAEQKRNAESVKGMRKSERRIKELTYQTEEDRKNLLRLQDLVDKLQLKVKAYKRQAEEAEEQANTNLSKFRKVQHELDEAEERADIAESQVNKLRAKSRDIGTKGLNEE

In order of rising “Ventricular EC25” value:
1. Cc1nc(C#N)cnc1[C@H](C)NC(=O)Cc1c(C)c2c(C#N)c(F)ccc2[nH]c1=O (single isomer, unassigned) [compound 2]  80 nM
2. C[C@H](NC(=O)Cc1c(C(F)F)c2c(F)c(F)ccc2[nH]c1=O)c1ccc(F)cc1F [compound 107]  90 nM
3. Cc1cc(C#N)ncc1[C@@H](C)NC(=O)Cc1c(C)c2c(C)c(F)ccc2[nH]c1=O [compound 1044]  100 nM
4. Cc1c([C@H](C)C(=O)N[C@@H](C)c2ncc(C#N)cc2F)c(=O)[nH]c2ccc(F)c(F)c12 (single isomer, unassigned) [compound 2603]  210 nM
5. CC[C@H](NC(=O)Cc1c(C)c2c(C)c(F)ccc2[nH]c1=O)c1ncc(C#N)cn1 (single isomer, unassigned) [compound 4834]  640 nM
6. Cc1c(C2(C(=O)N[C@H](C)c3ncc(C#N)cc3F)CC2)c(=O)[nH]c2cccc(C#N)c12 (single isomer, unassigned) [compound 2541]  700 nM
7. C[C@H](NC(=O)[C@H](C)c1c(C(F)(F)F)c2cc(F)ccc2[nH]c1=O)c1ccc(F)cc1F (single isomer, unassigned) [compound 58]  1320 nM
8. Cc1c(C(F)(F)C(=O)N[C@H](C)c2ncc(F)cc2F)c(=O)[nH]c2ccc(F)cc12 (single isomer, unassigned) [compound 4819]  2650 nM
9. Cc1c(CC(=O)N[C@H](C)c2ccc(C#N)nn2)c(=O)[nH]c2cccc(C#N)c12 [compound 1038]  2700 nM
10. Cc1c(C2(C(=O)N[C@H](C)c3ncc(C#N)cn3)CC2)c(=O)[nH]c2cccc(C#N)c12 (single isomer, unassigned) [compound 2543]  4000 nM
11. C[C@@H](NC(=O)Cc1cc2cc(F)c(F)cc2[nH]c1=O)c1cnc(C#N)cn1 [compound 1098]  17060 nM
12. Cc1cc(F)cnc1[C@H](C)NC(=O)C1(c2cc3c(F)c(F)ccc3[nH]c2=O)CC1 (single isomer, unassigned) [compound 4806]  33850 nM
13. C[C@@H](NC(=O)Cc1cc2c(C(F)(F)F)c(F)ccc2[nH]c1=O)c1ncc(C#N)cn1 (single isomer, unassigned) [compound 2009]  100000 nM
14. C[C@@H](NC(=O)C1(c2cc3c(F)c(F)ccc3[nH]c2=O)CC1)c1ccc(F)cc1F [compound 4813]  100000 nM
15. C[C@H](NC(=O)[C@@H](C)c1c(C(F)(F)F)c2cc(F)ccc2[nH]c1=O)c1ccc(F)cc1F (single isomer, unassigned) [compound 99]  100000 nM

System: Rabbit Psoas myofibrils (skeletal myosin ATPase)
Assay: Myofibril ATPase assay, rabbit psoas (skeletal) myofibrils
Assay type: biochemical
Conditions: Y75 value (no ‡ mark); rabbit psoas myofibrils
Procedure, shortened: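 Values are concentrations giving 75% (Y75) or 125% (Y125) of vehicle ATPase activity, from 4-parameter logistic fits of normalized rates. Rates came from linear regression of A340 over 75 min, NADH oxidation coupled to ADP via PK-LDH. Enzyme source: skeletal myofibrils from rabbit psoas, pH 7.0 pCa buffer.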

In order of falling “Skeletal EC25” value:
1. C[C@@H](NC(=O)Cc1cc2cc(F)c(F)cc2[nH]c1=O)c1cnc(C#N)cn1 [compound 1098]  17720 nM
2. Cc1cc(F)cnc1[C@H](C)NC(=O)C1(c2cc3c(F)c(F)ccc3[nH]c2=O)CC1 (single isomer, unassigned) [compound 4806]  2390 nM
3. C[C@@H](NC(=O)Cc1cc2c(C(F)(F)F)c(F)ccc2[nH]c1=O)c1ncc(C#N)cn1 (single isomer, unassigned) [compound 2009]  2250 nM
4. Cc1c(C(F)(F)C(=O)N[C@H](C)c2ncc(F)cc2F)c(=O)[nH]c2ccc(F)cc12 (single isomer, unassigned) [compound 4819]  1020 nM
5. C[C@@H](NC(=O)C1(c2cc3c(F)c(F)ccc3[nH]c2=O)CC1)c1ccc(F)cc1F [compound 4813]  910 nM
6. Cc1c(C2(C(=O)N[C@H](C)c3ncc(C#N)cc3F)CC2)c(=O)[nH]c2cccc(C#N)c12 (single isomer, unassigned) [compound 2541]  850 nM
7. Cc1c(C2(C(=O)N[C@H](C)c3ncc(C#N)cn3)CC2)c(=O)[nH]c2cccc(C#N)c12 (single isomer, unassigned) [compound 2543]  830 nM
8. Cc1c(CC(=O)N[C@H](C)c2ccc(C#N)nn2)c(=O)[nH]c2cccc(C#N)c12 [compound 1038]  340 nM
9. CC[C@H](NC(=O)Cc1c(C)c2c(C)c(F)ccc2[nH]c1=O)c1ncc(C#N)cn1 (single isomer, unassigned) [compound 4834]  150 nM
10. C[C@H](NC(=O)[C@H](C)c1c(C(F)(F)F)c2cc(F)ccc2[nH]c1=O)c1ccc(F)cc1F (single isomer, unassigned) [compound 58]  150 nM
11. C[C@H](NC(=O)[C@@H](C)c1c(C(F)(F)F)c2cc(F)ccc2[nH]c1=O)c1ccc(F)cc1F (single isomer, unassigned) [compound 99]  90 nM
12. Cc1c([C@H](C)C(=O)N[C@@H](C)c2ncc(C#N)cc2F)c(=O)[nH]c2ccc(F)c(F)c12 (single isomer, unassigned) [compound 2603]  30 nM
13. Cc1cc(C#N)ncc1[C@@H](C)NC(=O)Cc1c(C)c2c(C)c(F)ccc2[nH]c1=O [compound 1044]  20 nM
14. Cc1nc(C#N)cnc1[C@H](C)NC(=O)Cc1c(C)c2c(C#N)c(F)ccc2[nH]c1=O (single isomer, unassigned) [compound 2]  20 nM
15. C[C@H](NC(=O)Cc1c(C(F)F)c2c(F)c(F)ccc2[nH]c1=O)c1ccc(F)cc1F [compound 107]  20 nM
